The test system of one assay is Sa 3242. Put plainly: microbe, parasite or virus in culture. The conditions noted are these: Sa 3242 (S. aureus). Here is the method:
(§1) All the strains (see below) used in minimal inhibitory concentration (MIC) assays (Ovchinnikov et al., 2017, Front Microbiol., 8, p774, doi:10.3389/fmicb.2017.00774) were grown in BHI medium (Oxoid) at 30° C. without shaking. The tested strains were obtained from the LMG collection. […] NisinZ and micrococcin P1 were purified from source. Synthesized peptides were solubilized to concentrations of 10.0-0.1 mg/ml in 0.1% (vol/vol) trifluoroacetic acid and stored at −20° C. until use. Garvicin KS is made up of 3 peptides:
(§2) Bacteriocin activity was determined using a microtitre plate assay. The plates were incubated at 30° C. for 8 h and the growth was measured spectrophotometrically at 600 nm (A600) with 15 min intervals using SPECTROstarNano (BMG LABTECH, Germany). The MIC was defined as the bacteriocin concentration that inhibited the growth of the indicator strain by at least 50% in 200 μl culture (i.e., 50% of the turbidity of the control culture without bacteriocin).

For a further assay, the system named is SH 4015. Put plainly: microbe, parasite or virus in culture. The conditions noted are these: SH 4015 (S. haemolyticus). Here is the method:
as §1, §2

A further assay concerns Sa ATCC 33591. Put plainly: microbe, parasite or virus in culture. The conditions noted are these: Sa ATCC 33591 (S. aureus). On the procedure:
as §1, §2

The subject of the next assay is Sa3323. Put plainly: microbe, parasite or virus in culture. Particulars: Sa3323 (S. aureus). On the procedure: as §1, §2
The test system of the next assay is Sa 3328. Put plainly: microbe, parasite or virus in culture. The conditions noted are these: Sa 3328 (S. aureus). On the procedure:
as §1, §2

The subject of the next assay is Sa3324. Put plainly: microbe, parasite or virus in culture. Particulars: Sa3324 (S. aureus). Here is the method:
as §1, §2

The next assay concerns SH 4016. The assay can be described thus: microbe, parasite or virus in culture. Particulars: SH 4016 (S. haemolyticus). Here is the method:
as §1, §2

For the next assay, the system named is KAVA. Put plainly: MIC microtitre plate assay, pathogenic isolates. Format: cell-based. Particulars: KAVA. Here is the method: The tested strains were obtained from the LMG collection. […] NisinZ and micrococcin P1 were purified from source. […] Garvicin KS is made up of 3 peptides:
Bacteriocin activity was determined using a microtitre plate assay. The plates were incubated at 30° C. for 8 h and the growth was measured spectrophotometrically at 600 nm (A600) with 15 min intervals using SPECTROstarNano (BMG LABTECH, Germany).

No end group written: not given here. A value given as a limit tells only on which side of the number the result lay.

On to “MLAKIKAMIKKFPNPYTLAAKLTTYEINWYKQQYGRYPWERPVA [EntEJ97]”, for which the MIC against Sa 3242 was 6.25 mg/L; with SH 4015, 12.5 mg/L; against Sa ATCC 33591 it was greater than 50 mg/L; in the assay on Sa3323, 6.25 mg/L; against Sa 3328, 6.25 mg/L; against Sa3324, 12.5 mg/L. Besides, the MIC in the assay on SH 4016 is 12.5 mg/L; against KAVA, greater than 50 mg/L.

For the origin of these results see patent US11648289B2, “Antibacterial method” (priority 2016, dated 2023).
